Where a SMILES comes first, the peptide text is derived from it. Bridges are numbered along the chain shown (N, C = ends). [ ]: non-standard residue; d: D form. The star is where a group is joined. d(aIle) = CC[C@H](C)[C@@H](N)C(=O)O; d(aThr) = C[C@@H](O)[C@@H](N)C(=O)O; Hexanoyl(5-Me) = CC(C)CCCC(=O)*; Orn = NCCC[C@H](N)C(=O)O; Dhb = C/C=C(\N)C(=O)O
What was measured:
Format in all cases: cell-based, human
Conditions in all cases: 48 hours exposure
PANC-1 = assay: SRB colorimetric assay of cell growth and viability, PANC-1
SK-MEL-28 = assay: SRB colorimetric assay of cell growth and viability, SK-MEL-28
LNCaP = assay: SRB colorimetric assay of cell growth and viability, LNCaP
HT-29 = assay: SRB colorimetric assay of cell growth and viability, HT-29
SK-BR-3 = assay: SRB colorimetric assay of cell growth and viability, SK-BR-3
IGROV-1 = assay: SRB colorimetric assay of cell growth and viability, IGROV-1
HeLa = assay: SRB colorimetric assay of cell growth and viability, HeLa
LoVo = assay: SRB colorimetric assay of cell growth and viability, LoVo
IGROV-ET = assay: SRB colorimetric assay of cell growth and viability, IGROV-ET
A-549 = assay: SRB colorimetric assay of cell growth and viability, A-549
K-562 = assay: SRB colorimetric assay of cell growth and viability, K-562
DU-145 = assay: SRB colorimetric assay of cell growth and viability, DU-145
HeLa-APL = assay: SRB colorimetric assay of cell growth and viability, HeLa-APL

Structure (SMILES): C/C=C1\NC(=O)[C@H](Cc2ccccc2)NC(=O)[C@@H](C(C)C)NC(=O)[C@@H]([C@@H](C)CC)NC(=O)[C@H](NC(=O)[C@H](NC(=O)[C@H](CCCN)NC(=O)[C@H]2CCCN2C(=O)[C@H](NC(=O)[C@H](CCC(N)=O)NC(=O)[C@@H](NC(=O)[C@H](NC(=O)CCCC(C)C)C(C)C)[C@@H](C)O)C(C)C)[C@@H](C)CC)[C@@H](C)OC(=O)[C@H](C(C)C)NC1=O [Compound 48, [Gln^11]-KF] ({Hexanoyl(5-Me)}-[dV]TQ[dV][dP][Orn][d(aIle)][d(aThr)][d(aIle)][dV]F[Dhb]V; ester 8-C)
- GI50 (PANC-1): 5.1 µM
- TGI PANC-1 (PANC-1): 6.64E−06 Molar
- CC50 (PANC-1; read-out: LC50 PANC-1): 6.64 µM
- GI50 (SK-MEL-28): 6.64 µM
- TGI MEL-28 (SK-MEL-28): 6.64E−06 Molar
- CC50 (SK-MEL-28; read-out: LC50 MEL-28): 6.64 µM
- TGI LN-caP (LNCaP): 6.64E−06 Molar
- GI50 (LNCaP; read-out: GI50 LN-caP): 3.1 µM
- CC50 (LNCaP; read-out: LC50 LN-caP): 6.64 µM
- TGI HT-29 (HT-29): 6.64E−06 Molar
- GI50 (HT-29; read-out: GI50 HT-29): 6.64 µM
- CC50 (HT-29; read-out: LC50 HT-29): 6.64 µM
- GI50 (SK-BR-3): 6.64 µM
- LC50 (SK-BR-3): 6.64 µM
- TGI SK-BR-3 (SK-BR-3): 6.64E−06 Molar
- GI50 (IGROV-1): 6.64 µM
- LC50 (concentration causing 50% net cell killing) (IGROV-1): 6.64 µM
- TGI IGROV (IGROV-1): 6.64E−06 Molar
- GI50 (HeLa): 6.64 µM
- TGI HELA (HeLa): 6.64E−06 Molar
- CC50 (HeLa; read-out: LC50 HELA): 6.64 µM
- GI50 (LoVo): 5.17 µM
- TGI LOVO (LoVo): 6.64E−06 Molar
- CC50 (LoVo; read-out: LC50 LOVO): 6.64 µM
- GI50 (IGROV-ET): 6.64 µM
- TGI IGROV-ET (IGROV-ET): 6.64E−06 Molar
- CC50 (IGROV-ET; read-out: LC50 IGROV-ET): 6.64 µM
- TGI A-549 (A-549): 6.64E−06 Molar
- GI50 (A-549; read-out: GI50 A-549): 5.82 µM
- CC50 (A-549; read-out: LC50 A-549): 6.64 µM
- GI50 (K-562): 6.64 µM
- TGI K-562 (K-562): 6.64E−06 Molar
- CC50 (K-562; read-out: LC50 K-562): 6.64 µM
- GI50 (DU-145): 6.64 µM
- LC50 (concentration causing 50% net cell kill) (DU-145): 6.64 µM
- TGI DU-145 (DU-145): 6.64E−06 Molar
- GI50 (HeLa-APL): 6.64 µM
- TGI HELA-APL (HeLa-APL): 6.64E−06 Molar
- CC50 (HeLa-APL; read-out: LC50 HELA-APL): 6.64 µM

From patent publication US20070117743A1, “New antitumoral compounds” (priority 2003, published 2007)
